Assay results published in BigSolDB 2.1.

On1nnc2ccccc21
Settings	solubility (mole fraction)
in 1,4-dioxane, 288.15 K	0.0145
in 1,4-dioxane, 290.65 K	0.0158
in 1,4-dioxane, 293.15 K	0.0171
in 1,4-dioxane, 295.65 K	0.0187
in 1,4-dioxane, 298.15 K	0.0202
in 1,4-dioxane, 300.65 K	0.0225
in 1,4-dioxane, 303.15 K	0.0247
in 1,4-dioxane, 305.65 K	0.0272
in 1,4-dioxane, 308.15 K	0.0298
in 1,4-dioxane, 310.65 K	0.0331
in 1,4-dioxane, 313.15 K	0.0364
in 2-butanone, 278.15 K	0.0157
in 2-butanone, 280.65 K	0.0169
in 2-butanone, 283.15 K	0.0181
in 2-butanone, 285.65 K	0.0195
in 2-butanone, 288.15 K	0.021
in 2-butanone, 290.65 K	0.0225
in 2-butanone, 293.15 K	0.0241
in 2-butanone, 295.65 K	0.0259
in 2-butanone, 298.15 K	0.0278
in 2-butanone, 300.65 K	0.0299
in 2-butanone, 303.15 K	0.0323
in 2-butanone, 305.65 K	0.0347
in 2-butanone, 308.15 K	0.0372
in 2-butanone, 310.65 K	0.0402
in 2-butanone, 313.15 K	0.0433
in DMF, 278.15 K	0.0412
in DMF, 280.65 K	0.0464
in DMF, 283.15 K	0.0522
in DMF, 285.65 K	0.0587
in DMF, 288.15 K	0.0646
in DMF, 290.65 K	0.072
in DMF, 293.15 K	0.0794
in DMF, 295.65 K	0.0884
in DMF, 298.15 K	0.098
in DMF, 300.65 K	0.109
in DMF, 303.15 K	0.121
in DMF, 305.65 K	0.134
in DMF, 308.15 K	0.148
in DMF, 310.65 K	0.164
in DMF, 313.15 K	0.18
in DMSO, 278.15 K	0.0337
in DMSO, 280.65 K	0.0377
in DMSO, 283.15 K	0.0421
in DMSO, 285.65 K	0.0475
in DMSO, 288.15 K	0.0529
in DMSO, 290.65 K	0.0592
in DMSO, 293.15 K	0.0664
in DMSO, 295.65 K	0.0738
in DMSO, 298.15 K	0.082
in DMSO, 300.65 K	0.0921
in DMSO, 303.15 K	0.103
in DMSO, 305.65 K	0.114
in DMSO, 308.15 K	0.128
in DMSO, 310.65 K	0.142
in DMSO, 313.15 K	0.157
in acetone, 278.15 K	0.0139
in acetone, 280.65 K	0.0149
in acetone, 283.15 K	0.016
in acetone, 285.65 K	0.0171
in acetone, 288.15 K	0.0184
in acetone, 290.65 K	0.0198
in acetone, 293.15 K	0.0214
in acetone, 295.65 K	0.0229
in acetone, 298.15 K	0.0246
in acetone, 300.65 K	0.0266
in acetone, 303.15 K	0.0285
in acetone, 305.65 K	0.0306
in acetone, 308.15 K	0.033
in acetone, 310.65 K	0.0355
in acetone, 313.15 K	0.0383
in acetonitrile, 278.15 K	0.00229
in acetonitrile, 280.65 K	0.00249
in acetonitrile, 283.15 K	0.00271
in acetonitrile, 285.65 K	0.00295
in acetonitrile, 288.15 K	0.00322
in acetonitrile, 290.65 K	0.00348
in acetonitrile, 293.15 K	0.0038
in acetonitrile, 295.65 K	0.00414
in acetonitrile, 298.15 K	0.00449
in acetonitrile, 300.65 K	0.00488
in acetonitrile, 303.15 K	0.00531
in acetonitrile, 305.65 K	0.0058
in acetonitrile, 308.15 K	0.00631
in acetonitrile, 310.65 K	0.00685
in acetonitrile, 313.15 K	0.00749
in ethanol, 278.15 K	0.0318
in ethanol, 280.65 K	0.0331
in ethanol, 283.15 K	0.0355
in ethanol, 285.65 K	0.0377
in ethanol, 288.15 K	0.0406
in ethanol, 290.65 K	0.0433
in ethanol, 293.15 K	0.0462
in ethanol, 295.65 K	0.0493
in ethanol, 298.15 K	0.0528
in ethanol, 300.65 K	0.0566
in ethanol, 303.15 K	0.0605
in ethanol, 305.65 K	0.0651
in ethanol, 308.15 K	0.0697
in ethanol, 310.65 K	0.0746
in ethanol, 313.15 K	0.0802
in ethyl acetate, 278.15 K	0.00505
in ethyl acetate, 280.65 K	0.00555
in ethyl acetate, 283.15 K	0.00606
in ethyl acetate, 285.65 K	0.00676
in ethyl acetate, 288.15 K	0.00745
in ethyl acetate, 290.65 K	0.00821
in ethyl acetate, 293.15 K	0.00908
in ethyl acetate, 295.65 K	0.0101
in ethyl acetate, 298.15 K	0.0115
in ethyl acetate, 300.65 K	0.013
in ethyl acetate, 303.15 K	0.0149
in ethyl acetate, 305.65 K	0.0169
in ethyl acetate, 308.15 K	0.0193
in ethyl acetate, 310.65 K	0.0219
in ethyl acetate, 313.15 K	0.0247
in isooctanol, 278.15 K	0.0108
in isooctanol, 280.65 K	0.0112
in isooctanol, 283.15 K	0.0115
in isooctanol, 285.65 K	0.0119
in isooctanol, 288.15 K	0.0123
in isooctanol, 290.65 K	0.0127
in isooctanol, 293.15 K	0.0132
in isooctanol, 295.65 K	0.0137
in isooctanol, 298.15 K	0.0143
in isooctanol, 300.65 K	0.0149
in isooctanol, 303.15 K	0.0154
in isooctanol, 305.65 K	0.0161
in isooctanol, 308.15 K	0.0168
in isooctanol, 310.65 K	0.0175
in isooctanol, 313.15 K	0.0182
in isopentanol, 278.15 K	0.0109
in isopentanol, 280.65 K	0.0114
in isopentanol, 283.15 K	0.0118
in isopentanol, 285.65 K	0.0123
in isopentanol, 288.15 K	0.0127
in isopentanol, 290.65 K	0.0132
in isopentanol, 293.15 K	0.0137
in isopentanol, 295.65 K	0.0143
in isopentanol, 298.15 K	0.0148
in isopentanol, 300.65 K	0.0155
in isopentanol, 303.15 K	0.0161
in isopentanol, 305.65 K	0.0167
in isopentanol, 308.15 K	0.0174
in isopentanol, 310.65 K	0.0181
in isopentanol, 313.15 K	0.0188
in isopropanol, 278.15 K	0.0248
in isopropanol, 280.65 K	0.0261
in isopropanol, 283.15 K	0.0281
in isopropanol, 285.65 K	0.0301
in isopropanol, 288.15 K	0.032
in isopropanol, 290.65 K	0.0341
in isopropanol, 293.15 K	0.0367
in isopropanol, 295.65 K	0.0392
in isopropanol, 298.15 K	0.0421
in isopropanol, 300.65 K	0.0451
in isopropanol, 303.15 K	0.0481
in isopropanol, 305.65 K	0.0515
in isopropanol, 308.15 K	0.0553
in isopropanol, 310.65 K	0.0592
in isopropanol, 313.15 K	0.0637
in methanol, 278.15 K	0.0223
in methanol, 280.65 K	0.0239
in methanol, 283.15 K	0.0254
in methanol, 285.65 K	0.0274
in methanol, 288.15 K	0.0294
in methanol, 290.65 K	0.0314
in methanol, 293.15 K	0.0336
in methanol, 295.65 K	0.0358
in methanol, 298.15 K	0.0386
in methanol, 300.65 K	0.0415
in methanol, 303.15 K	0.0445
in methanol, 305.65 K	0.048
in methanol, 308.15 K	0.0522
in methanol, 310.65 K	0.0562
in methanol, 313.15 K	0.0609
in n-heptanol, 278.15 K	0.0119
in n-heptanol, 280.65 K	0.0123
in n-heptanol, 283.15 K	0.0129
in n-heptanol, 285.65 K	0.0134
in n-heptanol, 288.15 K	0.014
in n-heptanol, 290.65 K	0.0146
in n-heptanol, 293.15 K	0.0152
in n-heptanol, 295.65 K	0.0158
in n-heptanol, 298.15 K	0.0165
in n-heptanol, 300.65 K	0.0173
in n-heptanol, 303.15 K	0.0182
in n-heptanol, 305.65 K	0.019
in n-heptanol, 308.15 K	0.02
in n-heptanol, 310.65 K	0.021
in n-heptanol, 313.15 K	0.022
in n-hexanol, 278.15 K	0.0114
in n-hexanol, 280.65 K	0.0118
in n-hexanol, 283.15 K	0.0123
in n-hexanol, 285.65 K	0.0129
in n-hexanol, 288.15 K	0.0134
in n-hexanol, 290.65 K	0.0139
in n-hexanol, 293.15 K	0.0145
in n-hexanol, 295.65 K	0.0152
in n-hexanol, 298.15 K	0.0159
in n-hexanol, 300.65 K	0.0166
in n-hexanol, 303.15 K	0.0174
in n-hexanol, 305.65 K	0.0182
in n-hexanol, 308.15 K	0.019
in n-hexanol, 310.65 K	0.0198
in n-hexanol, 313.15 K	0.0206
in n-propanol, 278.15 K	0.0297
in n-propanol, 280.65 K	0.0319
in n-propanol, 283.15 K	0.034
in n-propanol, 285.65 K	0.0362
in n-propanol, 288.15 K	0.0387
in n-propanol, 290.65 K	0.0412
in n-propanol, 293.15 K	0.044
in n-propanol, 295.65 K	0.0472
in n-propanol, 298.15 K	0.0502
in n-propanol, 300.65 K	0.0535
in n-propanol, 303.15 K	0.0573
in n-propanol, 305.65 K	0.0612
in n-propanol, 308.15 K	0.0655
in n-propanol, 310.65 K	0.0698
in n-propanol, 313.15 K	0.0749
in toluene, 278.15 K	1.1e-05
in toluene, 280.65 K	1.2e-05
in toluene, 283.15 K	1.5e-05
in toluene, 285.65 K	1.61e-05
in toluene, 288.15 K	1.99e-05
in toluene, 290.65 K	2.17e-05
in toluene, 293.15 K	2.49e-05
in toluene, 295.65 K	2.85e-05
in toluene, 298.15 K	3.26e-05
in toluene, 300.65 K	3.61e-05
in toluene, 303.15 K	4.28e-05
in toluene, 305.65 K	4.87e-05
in toluene, 308.15 K	5.56e-05
in toluene, 310.65 K	6.2e-05
in toluene, 313.15 K	6.92e-05
